According to patent US20250066290A1, “DHODH INHIBITORS CONTAINING A CARBOXYLIC ACID BIOISOSTERE” (IMMUNIC AG, priority 2021, published 2025):
pEC50, pIC50: −log10 of the molar value. Like-named read-outs stand apart in the source and are kept apart here.

Assays:
[1] = tested on: SARS-CoV-2; test: SARS-CoV-2 viral replication (YFP) assay; type: cell-based; settings: Severe acute respiratory syndrome coronavirus 2, read-out: EC50 range
[2] = target: N-terminally truncated recombinant hDHODH enzyme (Homo sapiens, UniProt Q02127); test: biochemical; type: biochemical
Sequence of N-terminally truncated recombinant hDHODH enzyme (Q02127 whole entry, looked up, the tested form may be a part): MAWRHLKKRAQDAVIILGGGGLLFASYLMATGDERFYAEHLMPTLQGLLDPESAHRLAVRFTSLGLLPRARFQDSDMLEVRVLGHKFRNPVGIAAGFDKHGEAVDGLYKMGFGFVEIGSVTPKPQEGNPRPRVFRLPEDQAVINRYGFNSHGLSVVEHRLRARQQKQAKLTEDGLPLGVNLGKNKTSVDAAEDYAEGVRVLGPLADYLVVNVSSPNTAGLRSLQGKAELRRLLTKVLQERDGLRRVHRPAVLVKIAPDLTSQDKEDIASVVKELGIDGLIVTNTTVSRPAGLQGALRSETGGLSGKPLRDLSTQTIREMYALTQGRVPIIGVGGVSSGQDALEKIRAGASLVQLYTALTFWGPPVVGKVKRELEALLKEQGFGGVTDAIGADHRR
Experimental: Briefly, the hDHODH concentration was adjusted in a way that an average slope of approximately 0.2 AU/min served as the positive control (e.g. without inhibitor). The standard assay mixture contained 60 μM 2,6-dichloroindophenol, 50 μM decylubiquinone and 100 μM dihydroorotate. The hDHODH enzyme with or without at least six different concentrations of the compounds was added and measurements were performed in 50 mM TrisHCl, 150 mM KCl and 0.1% Triton X-100 at pH 8.0 and at 30° C. The reaction was started by adding dihydroorotate and measuring the absorption at 600 nm for 2 min. For the determination of the IC50 values, each data point was recorded in triplicate. […].

[3] = human DHODH assay, read-out: IC50 range

SMILES | pEC50 [1] | pIC50 [2, 3] | pIC50 [2] | pIC50 ([2]; matched pair comparison, read-out: DHODH IC50)
[2H]C([2H])([2H])Oc1cccc(-c2cc(F)c(NC(=O)C3=C(C(=O)NS(=O)(=O)C4(C)CC4)CCC3)c(F)c2)c1 [1/2] | 4.60 to 5.00 | < 5.00 |  | 
[2H]C([2H])([2H])Oc1cccc(-c2cc(F)c(NC(=O)C3=C(C(=O)NS(=O)(=O)C(F)F)CCC3)c(F)c2)c1 [1/3] | 4.30 to 4.60 |  | 5.00 to 6.00 | 
[2H]C([2H])([2H])Oc1cccc(-c2cc(F)c(NC(=O)C3=C(C(=O)NS(C)(=N)=O)CCC3)c(F)c2)c1 (stereo not shown) [1/4] | < 4.30 | > 7.00 |  | 
[2H]C([2H])([2H])C([2H])([2H])Oc1cccc(-c2cc(F)c(NC(=O)C3=C(C(=O)NS(C)(=O)=O)CCC3)c(F)c2)c1 [1/5] | > 5.00 | > 7.00 |  | 
[2H]C([2H])([2H])Oc1ccccc1-c1cc(F)c(NC(=O)C2=C(C(=O)NS(C)(=O)=O)CCC2)c(F)c1 [1/6] | 4.30 to 4.60 | > 7.00 |  | 
[2H]c1c([2H])c(-c2cccc(OC([2H])([2H])[2H])c2)c([2H])c(C([2H])([2H])[2H])c1NC(=O)C1=C(C(=O)NS(C)(=O)=O)CCC1 [1/8] |  |  | 5.00 to 6.00 | 
[2H]C([2H])([2H])Oc1ccccc1-c1c(F)c(F)c(NC(=O)C2=C(C(=O)NS(C)(=O)=O)CCC2)c(F)c1F [1/9] |  | > 7.00 |  | 
[2H]C([2H])([2H])Oc1cccc(-c2c(F)c(F)c(NC(=O)C3=C(C(=O)NS(C)(=O)=O)COC3)c(F)c2F)c1 [1/10] |  |  | 6.00 to 7.00 | 
[2H]C([2H])([2H])Oc1cccc(-c2ccc(NC(=O)C3=C(C(=O)NS(C)(=O)=O)CCC3)c(F)c2)c1 [1/11] |  |  | 6.00 to 7.00 | 
[2H]C([2H])([2H])Oc1cccc(-c2c(F)c(F)c(NC(=O)C3=C(C(=O)NS(C)(=O)=O)CC(F)(F)C3)c(F)c2F)c1 [1/12] | > 6.00 | > 7.00 |  | 
[2H]C([2H])([2H])Oc1cccc(-c2c(F)c(F)c(NC(=O)c3cscc3C(=O)NS(C)(=O)=O)c(F)c2F)c1 [1/14] | < 4.30 |  |  | 
[2H]C([2H])([2H])Oc1cccc(-c2cc(F)c(NC(=O)C3=C(C(=O)NS(=O)(=O)N(C)C)CCC3)c(F)c2)c1 [2/2] | 4.60 to 5.00 | < 5.00 |  | 
[2H]C([2H])([2H])Oc1cccc(-c2cc(F)c(NC(=O)C3=C(C(=O)NS(=O)(=O)NC)CCC3)c(F)c2)c1 [2/3] | 4.60 to 5.00 |  | 6.00 to 7.00 | 
[2H]C([2H])([2H])Oc1ccccc1-c1c(F)c(F)c(NC(=O)C2=C(C(=O)NS(N)(=O)=O)CCC2)c(F)c1F [2/4] | > 5.00 | > 7.00 |  | 
[2H]C([2H])([2H])Oc1cccc(-c2c(F)c(F)c(NC(=O)C3=C(C(=O)NS(N)(=O)=O)CC(F)(F)C3)c(F)c2F)c1 [2/5] | > 6.00 | > 7.00 |  | 
[2H]C([2H])([2H])Oc1cccc(-c2c(F)c(F)c(NC(=O)c3cscc3C(=O)NS(N)(=O)=O)c(F)c2F)c1 [2/6] | > 5.00 | > 7.00 |  | 
[2H]C([2H])([2H])Oc1cccc(-c2cc(F)c(NC(=O)C3=C(C(=O)NOCCF)CCC3)c(F)c2)c1 [4/2] | > 5.00 |  | 6.00 to 7.00 | 
[2H]C([2H])([2H])ONC(=O)C1=C(C(=O)Nc2c(F)cc(-c3cccc(OC([2H])([2H])[2H])c3)cc2F)CCC1 [4/4] | > 5.00 |  |  | 
[2H]C([2H])([2H])Oc1cccc(-c2ccc(NC(=O)C3=C(C(=O)NOC)CCC3)n3ccnc23)c1 [4/8] |  | < 5.00 |  | 
[2H]C([2H])([2H])Oc1cccc(-c2cc(F)c(NC(=O)C3=C(C(=O)NOCC)CCC3)c(F)c2)c1 [4/9] | > 5.00 |  | 5.00 to 6.00 | 
[2H]C([2H])([2H])Oc1cccc(-c2ccc(NC(=O)C3=C(C(=O)NOC)CCC3)c3cnccc23)c1 [4/11] | 4.30 to 4.60 | < 5.00 |  | 

SMILES | pEC50 [1] | pIC50 [2, 3] | pIC50 [2] | pIC50 ([2]; matched pair comparison, read-out: DHODH IC50)
[2H]C([2H])([2H])Oc1cccc(-c2ccc(NC(=O)C3=C(C(=O)NOC)CCC3)c3ccccc23)c1 [4/12] | > 5.00 | < 5.00 |  | 
CONC(=O)C1=C(C(=O)Nc2c(F)cc(-c3cccc4c3OCO4)cc2F)CCC1 [4/13] | > 5.00 |  | 5.00 to 6.00 | 
CONC(=O)C1=C(C(=O)Nc2c(F)cc(-c3cccc4ocnc34)cc2F)CCC1 [4/14] | > 5.00 |  | 5.00 to 6.00 | 
[2H]C([2H])([2H])Oc1cccc(-c2cc(F)c(NC(=O)C3=C(C(=O)NC#N)CCC3)c(F)c2)c1 [4/15] | 4.60 to 5.00 |  |  | 
[2H]C([2H])([2H])ONC(=O)C1=C(C(=O)Nc2c(F)c(F)c(-c3cccc(OC([2H])([2H])[2H])c3)c(F)c2F)CCC1 [4/22] | > 6.00 | > 7.00 |  | 
[2H]C([2H])([2H])Oc1cccc(-c2c(F)c(F)c(NC(=O)C3=C(C(=O)NOCCO)CCC3)c(F)c2F)c1 [4/23] | > 6.00 | > 7.00 |  | 
[2H]C([2H])([2H])Oc1cccc(C23CCC(NC(=O)C4=C(C(=O)NOC)CCC4)(CC2)CC3)c1 [4/24] |  | < 5.00 |  | 
[2H]C([2H])([2H])Oc1cccc(-c2ccc(NC(=O)C3=C(C(=O)NOCCO)CCC3)c(F)c2)c1 [5/7] |  | < 5.00 |  | 
[2H]C([2H])([2H])Oc1cccc(-c2ccc(NC(=O)C3=C(C(=O)NOC)CCC3)c(F)c2)c1 [5/8] |  |  | 5.00 to 6.00 | 
[2H]C([2H])([2H])ONC(=O)C1=C(C(=O)Nc2c(F)c(F)c(-c3ccccc3OC([2H])([2H])[2H])c(F)c2F)COC1 [5/10] |  | > 7.00 |  | 
[2H]C([2H])([2H])Oc1ccccc1-c1c(F)c(F)c(NC(=O)C2=C(C(=O)NOC)COC2)c(F)c1F [5/11] |  | > 7.00 |  | 
[2H]C([2H])([2H])ONC(=O)C1=C(C(=O)Nc2c(F)c(F)c(-c3cccc(OC([2H])(C([2H])([2H])[2H])C([2H])([2H])[2H])c3)c(F)c2F)COC1 [5/15] |  | > 7.00 |  | 
[2H]C([2H])([2H])ONC(=O)C1=C(C(=O)Nc2c(F)c(F)c(-c3cc(F)cc(OC([2H])([2H])[2H])c3)c(F)c2F)COC1 [5/16] |  | > 7.00 |  | 
[2H]C([2H])([2H])Oc1cccc(-c2c(F)c(F)c(NC(=O)c3cc(F)sc3C(=O)NOC)c(F)c2F)c1 [16/2] |  | > 7.00 |  | 
[2H]C([2H])([2H])Oc1cccc(-c2c(F)c(F)c(NC(=O)c3sc(F)cc3C(=O)NOC)c(F)c2F)c1 [16/3] |  | > 7.00 |  | 
CONC(=O)C1=C(C(=O)Nc2ccc(-c3cccc(OC)c3)cc2F)CCC1 [Example 4/33] |  |  | 5.00 to 6.00 | 5.69
[2H]C([2H])([2H])Oc1cccc(-c2cc(F)c(N(CC(=O)OC)C(=O)C3=C(C(=O)NOC)CCC3)c(F)c2)c1 [Example 14, Methyl N-(3,5-difluoro-3′-(methoxy-d3)-[1,1′-biphenyl]-4-yl)-N-(2-(methoxy-carbamoyl)cyclopent-1-ene-1-carbonyl)glycinate] |  |  | 5.00 to 6.00 | 
[2H]C([2H])([2H])Oc1cccc(-c2cc(F)c(N(CCO)C(=O)C3=C(C(=O)NOC)CCC3)c(F)c2)c1 [Example 15, N1-(3,5-Difluoro-3′-(methoxy-d3)-[1,1′-biphenyl]-4-yl)-N1-(2-hydroxyethyl)-N2-methoxy-cyclopent-1-ene-1,2-dicarboxamide] |  | < 5.00 |  | 
[2H]C([2H])([2H])Oc1cccc(-c2c(F)c(F)c(NC(=O)c3ncsc3C(=O)NOC)c(F)c2F)c1 [Example 16-1, N5-methoxy-N4-(2,3,5,6-tetrafluoro-3′-(methoxy-d3)-[1,1′-biphenyl]-4-yl)thiazole-4,5-dicarboxamide] |  | > 7.00 |  | 
[2H]C([2H])([2H])Oc1cccc(-c2c(F)c(F)c(NC(=O)c3scnc3C(=O)NOC)c(F)c2F)c1 [Example 16-2, N4-methoxy-N5-(2,3,5,6-tetrafluoro-3′-(methoxy-d3)-[1,1′-biphenyl]-4-yl)thiazole-4,5-dicarboxamide] |  |  | 6.00 to 7.00 | 
